# Target: farnesyl protein transferase (Homo sapiens, UniProt P49354+P49356)
# Assay: FPT IC50 (inhibition of farnesyl protein transferase, in vitro enzyme assay)
# Format: biochemical
# Method: (§1) FPT IC50 (inhibition of farnesyl protein transferase, in vitro enzyme assay) and COS Cell IC50 (Cell-Based Assay) were determined following the assay procedures described in WO 95/10516, published Apr. 20, 1995. GGPT IC50 (inhibition of geranylgeranyl protein transferase, in vitro enzyme assay), Cell Mat Assay, and anti-tumor activity (in vivo anti-tumor studies) could be determined by the assay procedures described in WO 95/10516. The disclosure of WO 95/10516 is incorporated herein by reference thereto.
row,Compound,IC50
1,"CCOC(=O)N1CCC(C2c3ncccc3CCc3cccnc32)CC1 [Example 6, ethyl 4-(6,11-dihydro-5H-cyclohepta[2,1-b:4,5-b']dipyridin-11-yl)-1-piperidinecarboxylate]",> 17000 nM
2,"O=C(Cc1cc[n+]([O-])cc1)N1CCC(C2c3ncccc3CCc3cccnc32)CC1 [Example 8, 4-(6,11-dihydro-5H-cyclohepta[2,1-b: 4,5-b']dipyridin-11-yl)-1-(4-pyridinylacetyl) n1-oxide piperidine]",> 1400 nM
3,"O=C(Cc1cc[n+]([O-])cc1)N1CCC(C2c3ncc(Br)cc3CCc3cc(Br)cnc32)CC1 [Example 13, 4-(3,8-dibromo-6,11-dihydro-5H-cyclohepta [2,1-b:4,5-b']dipyridin-11-yl)-1-(4-pyridinylacetyl) n1-oxide piperidine]",28 nM
4,"O=C(Cc1cc[n+]([O-])cc1)N1CCC(C2c3ncccc3CCc3cc(Br)cnc32)CC1 (stereo not drawn) [Example 17, 4-(3-bromo-6,11-dihydro-5H-cyclohepta [2,1-b:4,5-b']dipyridin-11-yl)-1-(4-pyridinylacetyl) n1-oxide piperidine]",290 nM
5,"Cc1cnc2c(c1)CCc1cccnc1C2C1CCN(C(=O)Cc2cc[n+]([O-])cc2)CC1 (stereo not drawn) [Example 18, 4-(3-methyl-6,11-dihydro-5H-cyclohepta [2,1-b:4,5-b']dipyridin-11-yl)-1-(4-pyridinylacetyl) n1-oxide piperidine]",160 nM

# Tested on: COS Cell
# Assay: COS Cell IC50 (Cell-Based Assay)
# Method: as §1
row,Compound,IC50
1,"O=C(Cc1cc[n+]([O-])cc1)N1CCC(C2c3ncc(Br)cc3CCc3cc(Br)cnc32)CC1 [Example 13, 4-(3,8-dibromo-6,11-dihydro-5H-cyclohepta [2,1-b:4,5-b']dipyridin-11-yl)-1-(4-pyridinylacetyl) n1-oxide piperidine]",125 nM
